Data from BindingDB's records for doi:10.1021/acs.jmedchem.6b01507 (East China University of Science and Technology, 2017).

Biological target: T1, Leukotriene A-4 hydrolase (Homo sapiens, UniProt P09960)
T1 sequence (P09960 whole entry): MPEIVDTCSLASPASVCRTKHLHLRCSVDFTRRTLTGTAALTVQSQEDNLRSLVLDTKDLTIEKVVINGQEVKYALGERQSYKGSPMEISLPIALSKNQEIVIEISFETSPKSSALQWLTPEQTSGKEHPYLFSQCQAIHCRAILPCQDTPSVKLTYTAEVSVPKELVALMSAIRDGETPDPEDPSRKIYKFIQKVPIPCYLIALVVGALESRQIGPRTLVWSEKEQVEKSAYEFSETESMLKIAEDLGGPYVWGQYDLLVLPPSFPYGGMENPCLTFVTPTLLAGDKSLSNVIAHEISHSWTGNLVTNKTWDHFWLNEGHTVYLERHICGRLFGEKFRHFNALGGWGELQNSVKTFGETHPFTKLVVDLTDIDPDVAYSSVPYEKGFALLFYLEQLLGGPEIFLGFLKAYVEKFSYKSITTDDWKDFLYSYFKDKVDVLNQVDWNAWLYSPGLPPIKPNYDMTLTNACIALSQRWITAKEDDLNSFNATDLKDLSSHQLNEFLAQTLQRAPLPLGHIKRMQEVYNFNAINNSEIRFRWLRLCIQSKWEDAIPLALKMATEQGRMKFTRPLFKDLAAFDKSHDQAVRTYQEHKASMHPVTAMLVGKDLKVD
Assay: Inhibition of recombinant human LTA4H Epoxide Hydrolase expressed in Escherichia coli BL21 (DE3) pLysS preincubated for 10 mins followed by addition of LTA4 as substrate measured after 15 mins by reverse-phase HPLC analysis

IC50: > 10 µM
SMILES: CN(C)Cc1cccc(S(=O)(=O)n2ccc(/C=C/C(=O)NO)c2)c1
